Converted amounts (≈) assume the structure as drawn. Like-named read-outs stand apart in the source and are kept apart here.
Assays:
[1] = target: T1, AHR (Homo sapiens, UniProt P35869); experiment: DRE-Luciferase Reporter Assay, HepG2 AhR-Lucia reporter cells; format: cell-based; details: with AHR activating ligand at EC50, read-out: HepG2-Luc IC50
T1 construct: other cell line with a DRE-luciferase reporter stably transfected; endogenous in cells; host or cells: HepG2 AhR-Lucia reporter cells
T1 sequence (P35869 11-848): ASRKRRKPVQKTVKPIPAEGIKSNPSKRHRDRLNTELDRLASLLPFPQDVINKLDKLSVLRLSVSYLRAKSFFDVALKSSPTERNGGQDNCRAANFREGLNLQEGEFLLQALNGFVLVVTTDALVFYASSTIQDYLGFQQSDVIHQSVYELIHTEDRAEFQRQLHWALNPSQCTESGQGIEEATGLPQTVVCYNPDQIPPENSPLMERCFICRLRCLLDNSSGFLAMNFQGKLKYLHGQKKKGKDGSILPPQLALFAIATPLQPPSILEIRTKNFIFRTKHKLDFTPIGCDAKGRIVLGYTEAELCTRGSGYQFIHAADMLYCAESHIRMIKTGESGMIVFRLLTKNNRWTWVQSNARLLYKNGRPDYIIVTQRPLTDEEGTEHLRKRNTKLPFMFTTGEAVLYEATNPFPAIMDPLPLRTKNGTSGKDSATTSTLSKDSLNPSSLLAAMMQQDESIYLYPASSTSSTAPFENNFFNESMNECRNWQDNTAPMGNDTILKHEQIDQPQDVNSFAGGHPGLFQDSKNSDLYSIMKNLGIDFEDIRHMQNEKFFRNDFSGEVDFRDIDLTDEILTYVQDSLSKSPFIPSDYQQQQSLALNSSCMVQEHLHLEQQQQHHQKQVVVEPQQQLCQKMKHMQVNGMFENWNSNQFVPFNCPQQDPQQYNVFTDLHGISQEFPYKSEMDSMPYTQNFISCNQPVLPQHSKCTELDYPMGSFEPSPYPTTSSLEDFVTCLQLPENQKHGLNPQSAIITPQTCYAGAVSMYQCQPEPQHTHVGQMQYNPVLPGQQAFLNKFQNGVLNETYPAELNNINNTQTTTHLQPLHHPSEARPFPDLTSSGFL
Method in brief: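 Antagonism read as inhibition of agonist-driven secreted luciferase in stably DRE-reporter-transfected cells such as HepG2 AhR-Lucia. Agonist ligand at EC50 concentration added 1 hr post-plating alongside antagonist (log series, top 100 uM); supernatant read at 24 or 48 h, IC50 derived against agonist-only maximum.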

[2] = Solubility Determination Assay in PBS pH 1.6 and pH 7.4; format: physicochemical; details: PBS buffer, aqueous buffer, kinetic from dmso stock
Description: The stock solutions of test compounds and control compound progesterone were prepared in DMSO at the concentrations of 10 mM. 15 μL of stock solution (10 mM) of each sample was placed in order into their proper 96-well rack. 485 μL of PBS pH 1.6 and pH 7.4 were added into each vial of the cap-less Solubility Sample plate. The assay was performed in singlet. One stir stick was added to each vial and then the vial was sealed using a molded PTFE/Silicone plug. […] After completion of the 2 hours, plugs were removed and the stir sticks were removed using a big magnet. The samples from the Solubility Sample plate were transferred into the filter plate. Using the Vacuum Manifold, all the samples were filtered. An aliquot of 5 μL was taken from the filtrate followed by addition of 495 μL of a mixture of H2O and acetonitrile containing internal standard (1:1). A certain proportion of ultrapure water was used to dilute the diluent according to the peak shape. The dilution factor was changed according to the solubility values and the LC-MS signal response.
From the 10 mM DMSO STD plate, 6 μL was transferred into the remaining empty plate, and then 194 μL of DMSO were added to that plate to have a STD concentration of 300 μM. From the 300 μM DMSO STD plate, 5 μL were transferred into the remaining empty plate, and then 495 μL of a mixture of H2O and acetonitrile containing internal standard (1:1) were added to that plate to have a final STD concentration of 3 μM. A certain proportion of ultrapure water was used to dilute the diluent according to the peak shape. The concentrations of the standard samples were changed according to the LC-MS signal response.
The plate was placed into the well plate autosampler. The samples were evaluated by LC-MS/MS analysis.
All calculations were carried out using Microsoft Excel.
The filtrate was analyzed and quantified against a standard of known concentration using LC coupled with mass spectral peak identification and quantitation. Solubility values of the test compound and control compound were calculated as follows: […]
Any value of the compounds that was not within the specified limits was rejected and the experiment was repeated.
“+++” indicates a solubility value equal to or greater than 1 μM, “++” indicates a solubility value between 0.1 and 1 μM, and “+” indicates a solubility value less than 0.1 μM.

[3] = Liver Microsome Stability Assay, human; format: in vitro ADME; details: human liver microsomes
Description: Two separate experiments were performed as follows.
With Cofactors (NADPH): 25 μL of 10 mM NADPH was added to the incubations. The final concentrations of microsomes and NADPH were 0.5 mg/mL and 1 mM, respectively. The final concentration of microsomes was 0.5 mg/mL. The mixture was pre-warmed at 37° C. for 10 minutes. The reaction was started with the addition of 2.5 μL of 100 μM control compound or test compound solutions. Verapamil was used as positive control in this study. The final concentration of test compound or control compound was 1 μM. The incubation solution was incubated in water batch at 37° C. Aliquots of 25 μL were taken from the reaction solution at 0.5, 5, 15, 30 and 60 minutes. The reaction was stopped by the addition of 5 volumes of cold acetonitrile with IS (200 nM caffeine and 100 nM tolbutamide). Samples were centrifuged at 3, 220 g for 40 minutes. Aliquot of 100 μL of the supernatant was mixed with 100 μL of ultra-pure H2O and then used for LC-MS/MS analysis.
Data Analysis: All calculations were carried out using Microsoft Excel. Peak areas were determined from extracted ion chromatograms. The slope value, k, was determined by linear regression of the natural logarithm of the remaining percentage of the parent drug vs. incubation time curve.
The in vitro half-life (in vitro t1/2) was determined from the slope value:
Conversion of the in vitro t1/2 (min) into the in vitro intrinsic clearance (in vitro CLint, in μL/min/mg protein) was done using the following equation (mean of duplicate determinations): […]
The calculations of Scaled-up CLint(mL/min/kg), Predicted CLH (mL/min/kg) and EH were done using the following equation:
Scaled-up CLint=(0.693/t1/2)×(1/(microsomal protein concentration(0.5 mg/mL)))×Scaling Factors;Predicted CLH=(QH×Scaled-up CLint×fub)/(QH+Scaled-up CLint×fub);EH=Predicted CLH/QH
where QH is the hepatic blood flow (mL/min/kg) (Table 32), • fub is the fraction of unbound drug in plasma which is assumed to be 1.
“+++” indicates a Clint value less than 10 mL/min/Kg, […] indicates a Clint between 10 and 20 mL/min/Kg, and “+” indicates a Clint above 20 mL/min/Kg.

[4] = PBS pH 1.6, 25° C., read-out: Aq. Solubility at pH = 1.6
[5] = PBS pH 7.4, 25° C., read-out: Aq. Solubility at pH = 7.4

| Structure (SMILES) | IC50 [1] [nM] | solubility at 2 h [2, 4] [µM] | solubility at 2 h [2, 5] [µM] | Human liver microsome clearance [3] |
| --- | --- | --- | --- | --- |
| C[C@H](n1cnc2c(-c3cccnc3)nc(-c3ccc(Cl)cc3)cc2c1=O)C(C)(C)O [Compound 36] | < 100 | ≥ 1 | < 0.1 | +++ (“+++” indicates a Clint value less than 10 mL/min/Kg) |
| Cc1ccc(-c2cc3c(=O)n([C@@H](C)CO)cnc3c(-c3cccc(F)c3)n2)cc1 [Compound 48, 8-(3-fluorophenyl)-3-[(1S)-2-hydroxy-1-methyl-ethyl]-6-(p-tolyl)pyrido[3,4-d]pyrimidin-4-one] | < 100 | ≥ 1 | 0.1 to 1 (≈ 0.0389 to 0.389 µg/mL) | +++ (“+++” indicates a Clint value less than 10 mL/min/Kg) |
